Source: PMC8716319 (Toxicology, 2020)

How the values were obtained:
[1] = Stability of alpha-dicarbonyl metabolites under reaction conditions; assay type: in vitro ADME; settings: low (50 μM) and high (500 μM) concentrations; student's t-test p < 0.05
[2] = molecular target: T1, microsomal epoxide hydrolase (Homo sapiens, UniProt P07099); assay type: in vitro ADME; settings: 1 μM elaidamide; 40 and 400 μM substrate; HLM
T1 sequence (P07099 1-455): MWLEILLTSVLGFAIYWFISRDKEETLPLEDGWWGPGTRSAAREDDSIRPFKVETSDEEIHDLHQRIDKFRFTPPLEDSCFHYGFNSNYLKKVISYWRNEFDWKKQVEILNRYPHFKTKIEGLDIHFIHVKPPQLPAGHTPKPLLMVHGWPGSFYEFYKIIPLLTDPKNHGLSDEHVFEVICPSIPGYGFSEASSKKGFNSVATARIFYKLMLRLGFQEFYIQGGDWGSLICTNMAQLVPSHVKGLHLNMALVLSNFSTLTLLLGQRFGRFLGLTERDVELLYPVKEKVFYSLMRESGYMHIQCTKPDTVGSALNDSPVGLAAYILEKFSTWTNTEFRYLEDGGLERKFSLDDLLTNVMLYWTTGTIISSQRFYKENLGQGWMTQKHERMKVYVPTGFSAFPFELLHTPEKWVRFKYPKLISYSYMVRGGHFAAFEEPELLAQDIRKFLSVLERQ

SMILES	depletion under reaction conditions [1]	inhibition of alpha-dicarbonyl formation by elaidamide [2] [%]
CC(=O)C=O [methylglyoxal]	only significant depletion after 60 min	
O=CC=O [glyoxal]	no significant depletion	
CN1C(C(=O)Nc2nccs2)=C(O)c2ccccc2S1(=O)=O [sudoxicam, N-(2-thiazolyl)-4-hydroxy-2-methyl-2H-1,2-benzothiazine-3-carboxamide 1,1-dioxide]		90
